We go through eight molecules from patent publication EP4223882A1, “PROCESS FOR PRODUCING ALDONIC ACIDS” (Vilnius University, priority 2022, dated 2023).

The target of data set [1] is T1, PQQGDH (Acinetobacter calcoaceticus, UniProt P13650).
T1 sequence (P13650 25-478): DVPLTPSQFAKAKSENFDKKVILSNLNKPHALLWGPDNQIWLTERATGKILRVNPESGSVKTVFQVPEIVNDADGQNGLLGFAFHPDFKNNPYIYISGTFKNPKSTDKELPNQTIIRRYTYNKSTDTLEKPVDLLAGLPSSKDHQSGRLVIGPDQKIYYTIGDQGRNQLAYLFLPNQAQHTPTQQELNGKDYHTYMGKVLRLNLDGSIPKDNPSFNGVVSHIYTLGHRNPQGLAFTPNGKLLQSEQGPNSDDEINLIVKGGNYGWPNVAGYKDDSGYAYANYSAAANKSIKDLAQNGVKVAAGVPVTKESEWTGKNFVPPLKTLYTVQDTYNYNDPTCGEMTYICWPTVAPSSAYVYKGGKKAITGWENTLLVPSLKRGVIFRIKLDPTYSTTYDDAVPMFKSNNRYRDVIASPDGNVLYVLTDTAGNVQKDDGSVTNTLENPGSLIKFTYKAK
The note with it: for cmax: sqrt(KM·Ki).

Data set [2] concerns the target T1, PQQGDH. Nature of the data set: biochemical.
The target in the next data set is T2, horseradish peroxidase (Armoracia rusticana, UniProt P00433).
T2 sequence (P00433 31-338 limits assumed): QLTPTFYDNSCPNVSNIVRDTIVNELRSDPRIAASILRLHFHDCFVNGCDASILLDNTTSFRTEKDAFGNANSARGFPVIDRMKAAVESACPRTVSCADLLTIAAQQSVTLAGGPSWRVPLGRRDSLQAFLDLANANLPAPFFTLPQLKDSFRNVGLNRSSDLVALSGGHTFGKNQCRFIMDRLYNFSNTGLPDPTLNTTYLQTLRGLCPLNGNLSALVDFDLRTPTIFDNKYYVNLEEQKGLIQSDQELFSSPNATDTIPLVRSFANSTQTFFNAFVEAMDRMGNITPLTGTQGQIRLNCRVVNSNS
The settings on record: cited from earlier work.

Substrate in data set [3]: OC[C@H]1O[C@@H](O[C@H]2[C@H](O)[C@@H](O)C(O)O[C@@H]2CO)[C@H](O)[C@@H](O)[C@H]1O
Nature of the data set: purified protein, by the assay type. The note with it: apparent parameter.

Substrate in data set [4]: O=C[C@H](O)[C@H](O)[C@H](O)CO
Kind of data set: purified protein, by the assay type. The note with it: other: pH 7.0, thionine 220 µM, apparent parameter.

Substrate in data set [5]: O=C[C@H](O)[C@@H](O)[C@H](O)CO
Nature of the data set: purified protein, by the assay type. The note with it: other: pH 7.0, thionine 220 µM, apparent parameter.

Substrate in data set [6]: O=C[C@H](O)[C@@H](O)[C@@H](O)[C@H](O)CO
Nature of the data set: purified protein, by the assay type. The settings on record: apparent parameter.

Setting [7] is: pH 7.0, thionine 220 µM, substrate concentration at maximal rate.
[8] abbreviates: pH 7.0, thionine 410 µM (asterisk).
[9] abbreviates: Ki, pH 7.0, thionine 410 µM (asterisk), enzyme inhibition by the substrate constant.
The mark [10] stands for this setting: other: pH 7.0, thionine 410 µM (asterisk).

Read-outs that look alike come from different tables or passages of the source.

Turning to `O=C[C@H](O)[C@@H](O)[C@H](O[C@@H]1O[C@H](CO)[C@@H](O)[C@H](O)[C@H]1O)[C@H](O)CO` [Cellobiose], on PQQGDH [1] (grouping of substrates), the “substrate concentration at which the maximal reaction rate was observed (cmax)” value (from here on “substrate concentration”) was under 20 mM. The cmax was 2.4 ± 0.2 mM at PQQGDH [1] (setting [7]) and 3.3 ± 0.2 mM at PQQGDH [1] (setting [8]). Further, the results for the inhibition constant Ki at PQQGDH [2] and on PQQGDH [2] (setting [9]) were 11 ± 1 mM and 21 ± 1 mM, respectively.

Take `O=C[C@H](O)[C@@H](O)[C@@H](O)[C@H](O)CO` [Galactose]: the “substrate concentration” value at PQQGDH [1] is recorded as under 20 mM.

Turning to `OC[C@H]1O[C@@H](O[C@H]2[C@H](O)[C@@H](O)C(O)O[C@@H]2CO)[C@H](O)[C@@H](O)[C@H]1O` (stereo partly shown) [Lactose], on PQQGDH [1] (grouping of substrates), the “substrate concentration” value is under 20 mM. The cmax at PQQGDH [1] (setting [7]) is 5.2 ± 0.9 mM; on PQQGDH [1] (setting [8]), 6.4 ± 0.4 mM. Moreover, the values for the Ki at PQQGDH [2] and on PQQGDH [2] (setting [9]) were 25 ± 2 mM and 51 ± 2 mM, respectively.

With `O=C[C@@H](O)[C@@H](O)[C@H](O)CO` [Lyxose], the “substrate concentration” value on PQQGDH [1] (grouping of substrates) is given as over 20 mM. Besides, the Vmax on PQQGDH [1] (pH 7.0, thionine 220 µM, apparent parameter) was 190 ± 40 s⁻¹. For the same molecule, the cmax on PQQGDH [1] (setting [7]) is recorded as >10^4 mM.

For `O=C[C@H](O)[C@H](O)[C@H](O)CO` [Ribose], the “substrate concentration” value at PQQGDH [1] (grouping of substrates) was over 20 mM. For the same molecule, the cmax on PQQGDH [1] (setting [7]) is 84 ± 39 mM.

Take `O=C[C@H](O)[C@@H](O)[C@H](O)CO` [Xylose]: the “substrate concentration” value on PQQGDH [1] (grouping of substrates) is listed as over 20 mM. Moreover, the cmax at PQQGDH [1] (setting [7]) was 88 ± 8 mM.

`Nc1ccc2c(c1)Sc1cc(N)ccc1N2` [leuco thionine]: at horseradish peroxidase, the “bimolecular horseradish peroxidase and leuco thionine reactivity constant” value is 4.8e+08 M⁻¹ s⁻¹.

B1: PQQGDH (Acinetobacter calcoaceticus) (protein)
chain: DVPLTPSQFAKAKSENFDKKVILSNLNKPHALLWGPDNQIWLTERATGKILRVNPESGSVKTVFQVPEIVNDADGQNGLLGFAFHPDFKNNPYIYISGTFKNPKSTDKELPNQTIIRRYTYNKSTDTLEKPVDLLAGLPSSKDHQSGRLVIGPDQKIYYTIGDQGRNQLAYLFLPNQAQHTPTQQELNGKDYHTYMGKVLRLNLDGSIPKDNPSFNGVVSHIYTLGHRNPQGLAFTPNGKLLQSEQGPNSDDEINLIVKGGNYGWPNVAGYKDDSGYAYANYSAAANKSIKDLAQNGVKVAAGVPVTKESEWTGKNFVPPLKTLYTVQDTYNYNDPTCGEMTYICWPTVAPSSAYVYKGGKKAITGWENTLLVPSLKRGVIFRIKLDPTYSTTYDDAVPMFKSNNRYRDVIASPDGNVLYVLTDTAGNVQKDDGSVTNTLENPGSLIKFTYKAK
For B1, the Km (commonly the substrate concentration at which the rate is half of its maximum) in data set [3] (other: pH 7.0, thionine 220 µM) came to 1500 ± 100 µM; in data set [3] (setting [10]), 610 ± 20 µM; in data set [4], 21000 ± 5000 µM; in data set [5], 7100 ± 300 µM; in data set [6] (other: pH 7.0, thionine 220 µM), 2400 ± 200 µM; in data set [6] (setting [10]), 1800 ± 100 µM. Further, the kcat (usually the maximal rate divided by the concentration of active sites) in data set [3] (other: pH 7.0, thionine 220 µM) worked out at 380 ± 50 s⁻¹; in data set [3] (setting [10]), 430 ± 10 s⁻¹; in data set [4], 250 ± 60 s⁻¹; in data set [5] it was 460 ± 20 s⁻¹; in data set [6] (other: pH 7.0, thionine 220 µM) it was 350 ± 30 s⁻¹; in data set [6] (setting [10]), 349 ± 2 s⁻¹.
